In PMC8695447, “Novel Small Molecules Capable of Blocking mtRAS-Signaling Pathway” (Frontiers in Oncology, 2021):

Key:
H358 (KRAS-G12C) = test: Anti-proliferation assay on H358; type: cell-based; conditions: 72 h treatment, average with SD (n = 3, duplicate)
Experimental: (§1) Ba/F3-parental, OCI-AML3, U397 cells were purchased from DSMZ. MDA-MB-231, HCT-116, AsPC-1, H358, HT-29, SW480, and DU-145 cells were obtained from KCLB. MDA-MB-468 cells were obtained from ATCC. All cells were maintained in RPMI with 10% FBS and antibiotics. Cells were grown in a humidified 5% CO2 incubator at 37°C. Ba/F3-parental cells were grown in the presence of 10 ng/ml IL-3. NRAS-G12D or NRAS-G12V transformed Ba/F3 cell lines (Ba/F3-NRAS-G12D, and Ba/F3-NRAS-G12V, respectively) were cultured without IL-3, which were established by the procedure described as previously ([30]).
(§2) Approximately 3.0 × 10^3 cells/well were seeded in a 96-well cell culture plate. After stabilization, 1/3 serially diluted compound in DMSO was treated to the cell. […] All GI50 values were obtained in duplicate with three independent assays and averages with standard deviation are presented.

U937 (KRAS, NRAS-wt) = test: Anti-proliferation assay on U937; type: cell-based; conditions: 72 h treatment, average with SD (n = 3, duplicate)
Experimental: as §1, §2

HT-29 (KRAS-Q61L) = test: Anti-proliferation assay on HT-29; type: cell-based; conditions: 72 h treatment, average with SD (n = 3, duplicate)
Experimental: as §1, §2

DU-145 (KRAS-G12V) = test: Anti-proliferation assay on DU-145; type: cell-based; conditions: 72 h treatment, average with SD (n = 3, duplicate)
Experimental: as §1, §2

SW480 (KRAS-G12V) = test: Anti-proliferation assay on SW480; type: cell-based; conditions: 72 h treatment, average with SD (n = 3, duplicate)
Experimental: as §1, §2

AsPC-1 (KRAS-G12D) = test: Anti-proliferation assay on AsPC-1; type: cell-based; conditions: 72 h treatment, average with SD (n = 3, duplicate)
Experimental: as §1, §2

Ba/F3-parental cells = test: Anti-proliferation assay (CellTiter Glo) on Ba/F3-parental; type: cell-based; conditions: 72 h treatment, with 10 ng/ml IL-3, average with SD (n = 3, duplicate)
Experimental: as §1, §2

HCT-116 (KRAS-G13D) = test: Anti-proliferation assay on HCT-116; type: cell-based; conditions: 72 h treatment, average with SD (n = 3, duplicate)
Experimental: as §1, §2

[1] = test system: MDA-MB-468 (KRAS, NRAS-wt); test: Anti-proliferation assay on MDA-MB-468; type: cell-based; conditions: 72 h treatment, average with SD (n = 3, duplicate)
Experimental: as §1, §2

MDA-MB-231 (KRAS-G13D) = test: Anti-proliferation assay on MDA-MB-231; type: cell-based; conditions: 72 h treatment, average with SD (n = 3, duplicate)
Experimental: as §1, §2

OCI-AML3 (NRAS-Q61L) = test: Anti-proliferation assay on OCI-AML3; type: cell-based, human; conditions: 72 h treatment, average with SD (n = 3, duplicate)
Experimental: as §1, §2

Ba/F3-NRAS-G12D cells = test: Anti-proliferation assay (CellTiter Glo) on Ba/F3-NRAS-G12D; type: cell-based; conditions: 72 h treatment, average with SD (n = 3, duplicate)
Experimental: as §1, §2

Ba/F3-NRAS-G12V cells = test: Anti-proliferation assay (CellTiter Glo) on Ba/F3-NRAS-G12V; type: cell-based; conditions: 72 h treatment, average with SD (n = 3, duplicate)
Experimental: as §1, §2

SMILES | GI50 (H358 (KRAS-G12C); Homo sapiens, NCI-H358) [nM] | GI50 (U937 (KRAS, NRAS-wt); Homo sapiens, U-937) [nM] | GI50 (HT-29 (KRAS-Q61L); Homo sapiens, HT-29) [nM] | GI50 (DU-145 (KRAS-G12V); Homo sapiens, DU-145) [nM] | GI50 (SW480 (KRAS-G12V); Homo sapiens, SW480) [nM] | GI50 (AsPC-1 (KRAS-G12D); Homo sapiens, ASPC1) [nM] | GI50 (HCT-116 (KRAS-G13D); Homo sapiens, HCT-116) [nM] | GI50 ([1]; Homo sapiens, MDA-MB-468) [nM] | GI50 (MDA-MB-231 (KRAS-G13D); Homo sapiens, MDA-MB-231) [nM] | GI50 (OCI-AML3 (NRAS-Q61L); Homo sapiens, OCI-AML-3) [nM] | GI50 (Ba/F3-NRAS-G12D cells; Mus musculus, BaF3) [nM] | GI50 (Ba/F3-NRAS-G12V cells; Mus musculus, BaF3) [nM] | GI50 (Ba/F3-parental cells; Mus musculus, BaF3) [nM] | other results
Cc1ccc(Nc2ncc3c(n2)N(C)C(=O)N(c2cc(NC(=O)c4cccc(C(F)(F)F)c4)ccc2C)C3)cn1 [GNF-7, reference compound] | – | – | – | – | – | – | – | – | – | – | – | – | – | GI50 (H358 (KRAS-G12C)): 922 ± 93 nM; GI50 (U937 (KRAS, NRAS-wt)): 4780 ± 926 nM; GI50 (HT-29 (KRAS-Q61L)): 938 ± 34 nM; GI50 (DU-145 (KRAS-G12V)): 288 ± 57 nM; GI50 (SW480 (KRAS-G12V)): 760 ± 63 nM; GI50 (AsPC-1 (KRAS-G12D)): 448 ± 27 nM; GI50 (Ba/F3-parental cells): 923 ± 59 nM; GI50 (HCT-116 (KRAS-G13D)): 169 ± 61 nM; GI50 [1]: > 50000 nM; GI50 (MDA-MB-231 (KRAS-G13D)): 296 ± 39 nM; GI50 (OCI-AML3 (NRAS-Q61L)): 229 ± 10 nM; GI50 (Ba/F3-NRAS-G12D cells): 250 ± 26 nM; GI50 (Ba/F3-NRAS-G12V cells): 396 ± 36 nM
Cc1ccc(NC(=O)c2cccc(C(F)(F)F)c2)cc1N1Cc2cnc(Nc3ccc(N4CCC(O)CC4)cc3)nc2N(C)C1=O [Compound 2, N-(3-(7-((4-(4-Hydroxypiperidin-1-yl)phenyl)amino)-1-methyl-2-oxo-1,4-dihydropyrimido[4,5-d]pyrimidin-3(2H)-yl)-4-methylphenyl)-3-(trifluoromethyl)benzamide] | 201 ± 23 | 1690 ± 624 | 143 ± 10 | 40 ± 20 | 293 ± 50 | 257 ± 129 | 15 ± 9 | 20200 ± 8770 | 90 | 101 ± 22 | 116 ± 37 | 181 ± 42 | 827 ± 142 | –
Cc1ccc(NC(=O)c2cccc(C(F)(F)F)c2)cc1N1Cc2cnc(Nc3ccc(N4CCCCC4)cc3)nc2N(C)C1=O [Compound 1, N-(4-Methyl-3-(1-methyl-2-oxo-7-((4-(piperidin-1-yl)phenyl)amino)-1,4-dihydropyrimido[4,5-d]pyrimidin-3(2H)-yl)phenyl)-3-(trifluoromethyl)benzamide] | 1380 ± 96 | > 50000 | 1310 ± 54 | 1040 ± 400 | 4510 ± 873 | 2020 ± 56 | 1240 ± 554 | > 50000 | 1120 ± 290 | 611 ± 65 | 586 ± 91 | – | > 50000 | –
CCN1CCN(c2ccc(Nc3ncc4c(n3)N(C)C(=O)N(c3cc(NC(=O)c5cccc(C(F)(F)F)c5)ccc3C)C4)c(C(F)(F)F)c2)CC1 [Compound 8, N-(3-(7-((4-(4-Ethylpiperazin-1-yl)-2-(trifluoromethyl)phenyl)amino)-1-methyl-2-oxo-1,4-dihydropyrimido[4,5-d]pyrimidin-3(2H)-yl)-4-methylphenyl)-3-(trifluoromethyl)benzamide] | 8980 ± 246 | 6060 ± 2180 | 2140 ± 109 | 3990 ± 566 | 5790 ± 657 | 6650 ± 102 | 5810 ± 965 | > 50000 | 2790 ± 658 | 687 ± 154 | 1255 ± 6 | 944 ± 112 | 3920 ± 722 | –
CCN1CCC(n2cc(Nc3ncc4c(n3)N(C)C(=O)N(c3cc(NC(=O)c5cccc(C(F)(F)F)c5)ccc3C)C4)cn2)CC1 [Compound 13, N-(3-(7-((1-(1-Ethylpiperidin-4-yl)-1H-pyrazol-4-yl)amino)-1-methyl-2-oxo-1,4-dihydropyrimido[4,5-d]pyrimidin-3(2H)-yl)-4-methylphenyl)-3-(trifluoromethyl)benzamide] | 147 ± 31 | 690 ± 35 | 164 ± 2 | 76 ± 26 | 269 ± 61 | 186 ± 22 | 77 ± 27 | 16200 ± 6020 | 55 ± 20 | 36 ± 7 | 114 ± 18 | 130 ± 28 | 889 ± 61 | –
Cc1ccc(NC(=O)c2cccc(C(F)(F)F)c2)cc1N1Cc2cnc(Nc3ccc(N4CCOCC4)cc3)nc2N(C)C1=O [Compound 3, N-(4-Methyl-3-(1-methyl-7-((4-morpholinophenyl)amino)-2-oxo-1,4-dihydropyrimido[4,5-d]pyrimidin-3(2H)-yl)phenyl)-3-(trifluoromethyl)benzamide] | 265 ± 4 | 2220 ± 163 | 227 ± 12 | 30 ± 8 | 382 ± 52 | 136 ± 11 | 18 ± 6 | > 50000 | 49 ± 12 | 80 ± 16 | 120 ± 39 | 134 ± 45 | 1060 ± 55 | –
COc1cc(N2CCOCC2)ccc1Nc1ncc2c(n1)N(C)C(=O)N(c1cc(NC(=O)c3cccc(C(F)(F)F)c3)ccc1C)C2 [Compound 7, N-(3-(7-((2-Methoxy-4-morpholinophenyl)amino)-1-methyl-2-oxo-1,4-dihydropyrimido[4,5-d]pyrimidin-3(2H)-yl)-4-methylphenyl)-3-(trifluoromethyl)benzamide] | 871 ± 141 | 17400 ± 4220 | 733 ± 1 | 388 ± 45 | 1329 ± 5 | 1680 ± 589 | 480 ± 275 | > 50000 | 620 ± 153 | 606 ± 68 | 588 ± 72 | 429 ± 80 | 3780 ± 1890 | –

Continued, in another order:

GI50 (H358 (KRAS-G12C); Homo sapiens, NCI-H358) [nM] | GI50 (U937 (KRAS, NRAS-wt); Homo sapiens, U-937) [nM] | GI50 (HT-29 (KRAS-Q61L); Homo sapiens, HT-29) [nM] | GI50 (DU-145 (KRAS-G12V); Homo sapiens, DU-145) [nM] | GI50 (SW480 (KRAS-G12V); Homo sapiens, SW480) [nM] | GI50 (AsPC-1 (KRAS-G12D); Homo sapiens, ASPC1) [nM] | GI50 (HCT-116 (KRAS-G13D); Homo sapiens, HCT-116) [nM] | GI50 ([1]; Homo sapiens, MDA-MB-468) [nM] | GI50 (MDA-MB-231 (KRAS-G13D); Homo sapiens, MDA-MB-231) [nM] | GI50 (OCI-AML3 (NRAS-Q61L); Homo sapiens, OCI-AML-3) [nM] | GI50 (Ba/F3-NRAS-G12D cells; Mus musculus, BaF3) [nM] | GI50 (Ba/F3-NRAS-G12V cells; Mus musculus, BaF3) [nM] | SMILES | GI50 (Ba/F3-parental cells; Mus musculus, BaF3) [nM] | other results
130 ± 9 | 2700 ± 668 | 366 ± 152 | 51 ± 46 | 275 ± 29 | 105 ± 34 | 68 ± 28 | > 50000 | 50 ± 12 | 59 ± 7 | 193 ± 7 | 280 ± 79 | Cc1ccc(NC(=O)c2cccc(C(F)(F)F)c2)cc1N1Cc2cnc(Nc3cnn(C)c3)nc2N(C)C1=O [Compound 10, N-(4-Methyl-3-(1-methyl-7-((1-methyl-1H-pyrazol-4-yl)amino)-2-oxo-1,4-dihydropyrimido[4,5-d]pyrimidin-3(2H)-yl)phenyl)-3-(trifluoromethyl)benzamide] | 630 ± 104 | –
240 ± 42 | 7000 ± 1120 | 355 ± 54 | 89 ± 47 | 286 ± 39 | 318 ± 10 | 45 ± 16 | > 50000 | 108 ± 26 | 103 ± 1 | 185 ± 15 | 259 ± 126 | Cc1ccc(NC(=O)c2cccc(C(F)(F)F)c2)cc1N1Cc2cnc(Nc3ccn(C)n3)nc2N(C)C1=O [Compound 11, N-(4-Methyl-3-(1-methyl-7-((1-methyl-1H-pyrazol-3-yl)amino)-2-oxo-1,4-dihydropyrimido[4,5-d]pyrimidin-3(2H)-yl)phenyl)-3-(trifluoromethyl)benzamid] | 1160 ± 330 | –
106 ± 12 | 934 ± 57 | 131 ± 4 | 34 ± 25 | 532 ± 150 | 275 ± 47 | 66 ± 55 | > 50000 | 71 ± 18 | 46 ± 16 | 122 ± 1 | 216 ± 5 | COCCn1cc(Nc2ncc3c(n2)N(C)C(=O)N(c2cc(NC(=O)c4cccc(C(F)(F)F)c4)ccc2C)C3)cn1 [Compound 12, N-(3-(7-((1-(2-Methoxyethyl)-1H-pyrazol-4-yl)amino)-1-methyl-2-oxo-1,4-dihydropyrimido[4,5-d]pyrimidin-3(2H)-yl)-4-methylphenyl)-3-(trifluoromethyl)benzamide] | 1160 ± 424 | –
2060 ± 1130 | 2870 ± 142 | 3250 ± 176 | 1170 ± 124 | 2050 ± 51 | 3170 ± 244 | 1530 ± 390 | > 50000 | 646 ± 68 | 374 ± 24 | 569 ± 28 | 428 ± 161 | Cc1ccc(Nc2ncc3c(n2)N(C)C(=O)N(c2cc(NC(=O)c4cccc(C(F)(F)F)c4)ccc2C)C3)c(C)n1 [Compound 6, N-(3-(7-((2,6-Dimethylpyridin-3-yl)amino)-1-methyl-2-oxo-1,4-dihydropyrimido[4,5-d]pyrimidin-3(2H)-yl)-4-methylphenyl)-3-(trifluoromethyl)benzamide] | 1470 ± 317 | –
